Data from publication PMC6257782, “Design, Synthesis, and Biological Evaluation of Benzylamino-Methanone Based Cholesteryl Ester Transfer Protein Inhibitors” (Molecules, 2010).

Biological target: T1, CETP (from rabbit serum) (Oryctolagus cuniculus, UniProt P22687)
T1 construct: native CETP in whole rabbit serum, not purified; BioVision fluorescent CE transfer kit (introduction describes human CETP, 476 residues, PDB 2OBD, not the assayed protein)
T1 sequence (P22687 2-497): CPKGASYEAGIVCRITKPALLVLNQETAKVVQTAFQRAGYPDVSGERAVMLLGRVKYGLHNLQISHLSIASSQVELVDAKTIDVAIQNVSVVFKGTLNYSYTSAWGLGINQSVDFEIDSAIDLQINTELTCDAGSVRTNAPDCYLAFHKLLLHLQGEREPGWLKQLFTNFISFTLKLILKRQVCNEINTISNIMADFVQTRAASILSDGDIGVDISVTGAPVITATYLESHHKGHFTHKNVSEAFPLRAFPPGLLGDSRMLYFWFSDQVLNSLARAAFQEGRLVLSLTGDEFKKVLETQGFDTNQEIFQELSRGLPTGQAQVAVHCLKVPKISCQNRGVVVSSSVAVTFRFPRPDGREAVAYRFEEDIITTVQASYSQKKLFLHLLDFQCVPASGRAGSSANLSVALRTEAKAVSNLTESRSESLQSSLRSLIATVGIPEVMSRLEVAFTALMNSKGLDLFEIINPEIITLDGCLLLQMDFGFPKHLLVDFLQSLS
Test: fluorescent neutral lipid (CE) transfer assay, BioVision kit
Format: biochemical
Conditions: read-out: In vitro % inhibition of CETP at 10 μM
Description: fluorescent neutral lipid (CE) transfer assay, BioVision kit on CETP (from rabbit serum)

Which inhibition at 10 µM does the source give for `COc1cccc(CNc2ccc(C(=O)c3ccc(C)cc3)cc2)c1` [compound 19, [4-(3-Methoxybenzylamino)phenyl]-p-tolyl-methanone] here?
Its inhibition at 10 µM is 16.4 ± 3%.

With `Cc1ccc(C(=O)c2ccc(NCc3cccc(C(F)(F)F)c3)cc2)cc1` [compound 21, p-Tolyl-[4-(3-trifluoromethylbenzylamino)phenyl]-methanone] as the compound, how does the inhibition at 10 µM read?
The inhibition at 10 µM was 16.7 ± 0.6%.

How did the inhibition at 10 µM turn out when `COc1ccc(C(=O)c2ccc(NCc3ccc(C(F)(F)F)cc3)cc2)c(OC)c1` [compound 30, (2,4-Dimethoxyphenyl)-[4-(4-trifluoromethylbenzylamino)phenyl]-methanone] was run?
Its inhibition at 10 µM is 19.8 ± 2.9%.

For `COc1ccc(C(=O)c2ccc(NCc3cccc(C(F)(F)F)c3)cc2)c(OC)c1` [compound 29, (2,4-Dimethoxyphenyl)-[4-(3-trifluoromethylbenzylamino)phenyl]-methanone], which inhibition at 10 µM is on record?
Its inhibition at 10 µM is 19.5 ± 0.6%.

With `Cc1ccc(C(=O)c2ccc(NCc3ccc(C(F)(F)F)cc3)cc2)cc1` [compound 22, p-Tolyl-[4-(4-trifluoromethylbenzylamino)phenyl]-methanone] as the compound, how does the inhibition at 10 µM read?
The inhibition at 10 µM was 12.6 ± 2.6%.
